The text below walks through data of ChEMBL document CHEMBL4190186 (Medchemcomm, 2016).

SMILES strings stand for the structures. pIC50: −log10 of the molar value. Active and inactive are the calls of the source. No cut-off for these calls is given here.

Series [1] deals with T98G. The experiment in a line: Induction of apoptosis in PTEN/TP53 deficient human T98G cells assessed as increase in cleaved caspase-8 expression at 20 uM after 24 to 48 hrs by Western blot analysis. It is filed as functional, cell-based. On the technique in general: In western blotting, separated proteins are transferred to a membrane and probed.
Series [2] concerns T98G. Description: Cytotoxicity against PTEN/TP53 deficient human T98G cells after 48 hrs by MTT assay. It is filed as functional, cell-based. A general note: Formazan colour is commonly taken as a measure of viable cells.
Series [3] concerns LN-18. The experiment in a line: Induction of apoptosis in human LN18 cells harboring TP53 mutation assessed as increase in cleaved caspase-9 expression at 20 uM after 24 to 48 hrs by Western blot analysis. Format: functional, cell-based.
Series [4] concerns T98G. Description: Induction of apoptosis in PTEN/TP53 deficient human T98G cells assessed as increase in cleaved caspase-3 expression at 20 uM after 24 to 48 hrs by Western blot analysis. It is filed as functional, cell-based.
The subject of series [5] is LN-18. Description: Effect on H3K27me3 levels in human LN18 cells harboring TP53 mutation at 20 uM after 24 to 48 hrs by Western blot analysis. The settings on record: ln-18, 20 µM. It is filed as ADME, cell-based.
The test system of series [6] is T98G. The experiment in a line: Induction of apoptosis in PTEN/TP53 deficient human T98G cells assessed as increase in cleaved PARP expression at 20 uM after 24 to 48 hrs by Western blot analysis. Format: functional, cell-based.
The subject of series [7] is LN-18. Description: Cytotoxicity against human LN18 cells harboring TP53 mutation assessed as cell death at 20 uM after 48 hrs by MTT assay relative to control. It is filed as functional.
Series [8] has as its system LN-18. The experiment in a line: Induction of apoptosis in human LN18 cells harboring TP53 mutation assessed as increase in cleaved PARP expression at 20 uM after 24 to 48 hrs by Western blot analysis. It is filed as functional, cell-based.
Series [9] relates to LN-18. The experiment in a line: Induction of apoptosis in human LN18 cells harboring TP53 mutation assessed as increase in cleaved caspase-3 expression at 20 uM after 24 to 48 hrs by Western blot analysis. Format: functional, cell-based.
Another series deals with Astrocyte. Description: Cytotoxicity against rat primary cortical astrocytes assessed as reduction in cell viability at 5 to 40 uM after 48 hrs by MTT assay relative to control. It is filed as cell-based.
Series [10] deals with LN-18. Description: Induction of apoptosis in human LN18 cells harboring TP53 mutation assessed as increase in cleaved caspase-8 expression at 20 uM after 24 to 48 hrs by Western blot analysis. It is filed as functional, cell-based.
Series [11] has as its system T98G. The experiment in a line: Cytotoxicity against PTEN/TP53 deficient human T98G cells assessed as cell death at 20 uM after 48 hrs by MTT assay relative to control. Format: functional.
For series [12], the system named is T98G. The experiment in a line: Induction of apoptosis in PTEN/TP53 deficient human T98G cells assessed as increase in cleaved caspase-9 expression at 20 uM after 24 to 48 hrs by Western blot analysis. It is filed as functional, cell-based.
Series [13] concerns T98G. Description: Effect on H3K27me3 levels in PTEN/TP53 deficient human T98G cells at 20 uM after 24 to 48 hrs by Western blot analysis. It is filed as ADME, cell-based.
The test system of series [14] is LN-18. Description: Cytotoxicity against human LN18 cells harboring TP53 mutation after 48 hrs by MTT assay. Format: functional, cell-based.
Another series relates to NCI-H460. Description: Cytotoxicity against human NCI-H460 cells. It is filed as functional, cell-based.

With `Cc1[nH]c2ccccc2c1/C=C/c1ccccc1-c1ccc(/C=C/C(=O)NO)cc1`, the outcome in the series on T98G [1], with LN-18 [3], with T98G [4], with T98G [6], in the series with LN-18 [8] and with LN-18 [9] was Active. Also, the outcome with LN-18 [10] and in the series with T98G [12] was Active. Besides, the Activity entry in the series with T98G [2] was “Dose-dependent effect”; in the series with LN-18 [5], “Non-Toxic”; in the series on LN-18 [7] it was above 70%; with Astrocyte, “Non-Toxic”; in the series with T98G [11], above 70%; in the series with T98G [13], “Non-Toxic”. Besides, the Activity entry in the series with LN-18 [14] was “Dose-dependent effect”.
Regarding `O=C(Nc1ccccc1)Nc1ccc(/C=C2\C(=O)N(O)c3ccccc32)cc1`, the outcome with LN-18 [7] and in the series on T98G [11] was inactive.
For the compound `NNC(=O)/C=C/c1ccc(-c2ccccc2)cc1`, the result in the series with LN-18 [7] and in the series on T98G [11] was Active.
On to `O=C(/C=C/c1ccc(-c2ccccc2)cc1)NO`, for which the outcome in the series with LN-18 [7] and with T98G [11] was Active.
`O=C1/C(=C\c2ccc(-c3ccccc3)cc2)c2ccccc2N1O`: the result in the series with LN-18 [7] and with T98G [11] was Active.
Regarding `CON1C(=O)/C(=C\c2ccc(-c3ccccc3)cc2)c2ccccc21`, the outcome in the series on LN-18 [7] and in the series on T98G [11] was Active.
Consider `O=C1Nc2ccccc2/C1=C/c1ccc(-c2ccccc2)cc1`, for which the outcome in the series on LN-18 [7] and in the series with T98G [11] was Active.
A word on the pIC50: it is −log10 of the IC50, conventionally taken in molar units. With `Nc1nsc2c1C(=O)c1ccccc1C2=O`, the Activity in the series with LN-18 [7] and in the series on T98G [11] was >50 - 70% each time. Also, the negative logarithm of the IC50 (pIC50) with NCI-H460 was 6.55.
With `O=C1Nc2ccc(Cl)cc2/C1=C/c1ccc(-c2ccccc2)cc1`, the result in the series on LN-18 [7] and in the series with T98G [11] was Active.
Turning to `O=C1c2ccccc2C(=O)c2c(-c3ccccc3)nsc21`, the outcome in the series with T98G [1], in the series on LN-18 [3], in the series with T98G [4], with T98G [6], in the series on LN-18 [8] and in the series with LN-18 [9] was inactive. In addition, the outcome with LN-18 [10] and in the series on T98G [12] was inactive. For the same compound, the Activity result in the series with T98G [2] was “Dose-dependent effect”; in the series with LN-18 [5], “Non-Toxic”; in the series with LN-18 [7], >50 - 70%; with Astrocyte, above 50%; in the series with T98G [11] it was >50 - 70%; in the series on T98G [13], “Non-Toxic”. Further, the Activity entry with LN-18 [14] is “Dose-dependent effect”. The compound also had a negative-log IC50 (pIC50) in the series on NCI-H460 of 6.44.
In the case of `CN(C)c1nsc2c1C(=O)c1ccccc1C2=O`, the outcome in the series with T98G [1], in the series with LN-18 [3], with T98G [4], with T98G [6], with LN-18 [8] and with LN-18 [9] was inactive. Further, the outcome in the series on LN-18 [10] and in the series on T98G [12] was inactive. Besides, the Activity entry in the series with T98G [2] is “Dose-dependent effect”; in the series on LN-18 [5] it was “Non-Toxic”; in the series on LN-18 [7], >50 - 70%; with T98G [11], >50 - 70%; in the series on T98G [13], “Non-Toxic”; with LN-18 [14] it was “Dose-dependent effect”. The compound also showed a pIC50 with NCI-H460 of 6.66.
For the compound `NNC(=O)N/C=C/c1ccc(-c2ccccc2)cc1`, the result in the series with LN-18 [7] and with T98G [11] was Active.
For the compound `O=C(Nc1ccccc1)Nc1ccc(/C=C2\C(=O)Nc3ccccc32)cc1`, the result in the series on LN-18 [7] and in the series with T98G [11] was inactive.
With `O=C1/C(=C\c2ccc(O)cc2)c2ccccc2N1O`, the outcome with LN-18 [7] and in the series with T98G [11] was inactive.
Consider `COc1ccc(-c2ccc(/C=C/C(=O)NO)cc2)cc1`, for which the result in the series on LN-18 [7] and in the series on T98G [11] was Active.
Turning to `Cc1[nH]c2ccccc2c1/C=C/c1ccccc1-c1ccc(/C=C/C(=O)Nc2cc(-c3ccccc3)ccc2O)cc1`, the result in the series with LN-18 [7] and with T98G [11] was Active.
